# According to patent publication US9079977B2, “Anti-trypanosomal peptides and uses thereof” (priority 2009, dated 2015):
# Where a SMILES comes first, the peptide text is derived from it.
# What was measured:
# [1] = Protocol: Liposome permeabilization assays. Liposomes were constructed by hydration of dried lipid films with 10 mM Hepes and 30 mM calcein to a final lipid concentration of 10 mg/ml. Resulting multilamellar liposomes were extruded through a 0.1 μm polycarbonate filter at temperatures above the transition point of the particular lipid mixture. Untapped calcein was removed by gel filtration (Sephacryl S-300 HR). Permeabilization of liposomes was monitored fluorimetrically with a Perkin Elmer LS-55 luminescent spectrophotometer. Assays were performed by diluting liposomes 1:1000 into the appropriate buffer and monitoring fluorescence when excited by 484 nm light (5 nm slit width) and reading the emission intensity at 513 nm (10 nm slit widths). The percentage calcein release was calculated relative to the 100% fluorescence intensity, achieved by the addition of 0.01% Triton X-100.
# [2] = tested on: Human embryonic kidney cells (HEK)
# [3] = tested on: Bloodstream form T. b. brucei Lister 427; experiment: Trypanosome killing assay, Example 2; assay type: cell-based, Trypanosoma brucei brucei; details: two hours at 37° C.
# Protocol: Trypanosome killing assays. Bloodstream form T. b. brucei Lister 427 (MiTat 1.2), T. b. gambiense type 1 (Eliane strain) and T. b. rhodesiense KETR12482 were used in these studies. Trypanosome killing assays were performed as described previously (Hajduk et al., 1989, J Biol Chem; 264(9):5210-5217; Shiflett et al., 2005, J Biol Chem; 280(38):32578-32585; and Widener et al., 2007, PLoS Pathog; 3(9):1250-1261). Cultured trypanosomes (except for T. b. gambiense which were incubated at 1×10^6 cells/ml) were incubated in HMI-9 media (BSF) or SM media (PCF) at a density of 1×10^7 cells/ml containing either 10% heat inactivated fetal bovine serum or bovine serum albumin and peptide or control reagents for two hours at 37° C. Killing of BSF trypanosomes was evaluated by phase-contrast microscopy. Procyclic form trypanosomes were stained with 0.1% trypan blue. Trypan blue staining was also used for some BSF assays to eliminate any possible discrepancy between the PCF and BSF assays. Trypan blue was added at the endpoint of each assay to avoid any toxic effects.
# [4] = tested on: bloodstream form T. b. brucei (wild type 427); experiment: Trypanosome lysis assay with Hpr-SP; assay type: cell-based, Trypanosoma brucei brucei; details: 8-80 μM peptide, 2 h, 37° C.
# Protocol: Trypanosome lysis assays. Trypanosomes were cultured in the appropriate media and incubated at a cell density of 3×10^6 cells/ml with the addition of peptide from a 10 mg/ml stock in DMSO, or control reagents for 2 hours (h) at 37° C. Lysis of bloodstream form trypanosomes was evaluated by phase-contrast microscopy. Procyclic form trypanosomes were stained with 0.1% trypan blue. Trypan blue staining was also used for some bloodstream form assays to eliminate any possible discrepancy between the procyclic and bloodstream form assays.
# BSF T. b. brucei [5] = experiment: Trypanosome killing assay, Example 4; assay type: cell-based, Trypanosoma brucei brucei; details: two hour killing assay, 37° C.
# Protocol: Trypanosome Killing Assays. Light microscopy based trypanosome killing assays were performed as previously described in detail (Harrington et al., 2010, J Biol Chem; 285(37):28659-66; Widener et al., 2007, PLoS Pathog; 3(9):1250-61; Shiflett et al., 2007, J Eukaryot Microbiol; 54(1):18-21; and Hajduk et al., 1989, J Biol Chem; 264(9):5210-7). Metacyclic T. b. brucei TREU 667 were obtained from dissection of the salivary glands of infected tsetse flies. Newly hatched Glossina morsitans morsitans (24-48 hours post eclosion) were fed defibrinated horse blood containing 2×10^6 ml^−1 trypanosomes and maintained at 25° C. in 75% relative humidity and fed maintenance blood meals three times per week. Following day 20-30, flies were harvested and salivary glands were dissected out and washed in HMI 9 media containing 10% fetal bovine serum. Metacyclic cells were collected via centrifugation and maintained in HMI 9 media with 10% fetal bovine serum at 37° C. in 5% CO2 until use. Killing assays were conducted with 1×10^4 cells/ml in HMI 9 media containing 10% fetal bovine serum. Trypanosoma vivax and T. congolense were grown from stabilites in donor ICR mouse (Harlan, United Kingdom). Parasites were harvested from mice by terminal exsanguination and passage of infected blood through a small anion exchange column. Cells were maintained in HMI 9 with 20% goat serum at 37° C. in 5% CO2 until use. Killing assays were performed with 1×10^7 cells/ml in HMI 9 media with either 20% goat serum, in the case of T. vivax and T congolense, and 10% fetal bovine serum, for T. b. brucei. Cells were incubated at 37° C. for 2 hours and dead parasites were scored visually. All were conducted in at least duplicate, and data points are the averages with standard deviations.
# [6] = tested on: plasma membrane of live BSF T. b. brucei; experiment: Anisotropy assays with DPH and TMA-DPH, Example 4; assay type: cell-based, Trypanosoma brucei brucei; details: 37° C.
# Protocol: Anisotropy Assays. The plasma membrane rigidity of live T. b. brucei was determined by measuring the fluorescence depolarization of diphenyl-1,3,5-hexatriene p-toluenesulfonate (DPH) or 1-(4-trimethylammoniumphenyl)-6-diphenyl-1,3,5-hexatriene p-toluenesulfonate (TMA-DPH; Invitrogen T204). Cells were washed 3 times with and resuspended in PBS at a density of 3×10^6 cells/ml. The anisotropic probes were added to a final concentration of […] and allowed to intercalate into the cell membrane for one hour in the dark. Anisotropic values were acquired via the software function of a PerkinElmer Life Sciences LS55 spectrofluorometer. Samples were excited at 358 nm, and emission was read at 430 nm, both with 10-nm slit widths. Temperature was maintained at 37° C. by means of the PerkinElmer LS55 Biokinetics accessory. Data were corrected for light scattering with an unlabeled sample of cells, and anisotropy was calculated according to the equation r=(IVV−GIVH)/(IVV+2GIVH), where r is the anisotropy value, IVV is the emission intensity acquired with the excitation- and emission-polarizing filters set vertically, G is the instrument correction factor, and IVH is the emission intensity acquired with the excitation-polarizing filter set vertically and the emission-polarizing filter set horizontally. All assays were conducted at 37° C. […]
# BSF T. b. brucei [7] = experiment: Trypanosome motility by video microscopy, Example 4; assay type: cell-based, Trypanosoma brucei brucei; details: 40 μM peptide, 37° C.
# Protocol: Trypanosome motility. All images and videos were acquired with an Axio Observer Z1 equipped with an AxioCam MRm controlled by AxioVision 4.6 software. Videos were acquired with live cells at a density of 1×10^7 cells/ml in HMI 9 media with 10% fetal bovine serum, incubated with 40 µM SHP-1 at 37° C. Videos were recorded at magnification 63× with 50-ms acquisition times. The motility of BSF trypanosomes was scored visually from video playback of trypanosomes scanned throughout 10 μl aliquots. Data is shown as the average of triplicate trials with standard deviations.
Compound,killing of BSF T. b. brucei [3],killing of BSF T. brucei (trypanocidal activity) (BSF T. b. brucei [5]),further results
"CC[C@H](C)[C@H](NC(=O)[C@@H](NC(=O)[C@H](C)NC(=O)CNC(=O)[C@H](CC(C)C)NC(=O)[C@H](CC(=O)O)NC(=O)[C@H](CO)NC(=O)[C@@H](N)CCSC)C(C)C)C(=O)N[C@@H](CO)C(=O)N[C@@H](CC(C)C)C(=O)N[C@@H](CC(C)C)C(=O)N[C@@H](CC(C)C)C(=O)N[C@@H](Cc1c[nH]c2ccccc12)C(=O)NCC(=O)N[C@@H](CCCNC(=N)N)C(=O)N[C@@H](CCC(N)=O)C(=O)N[C@@H](CC(C)C)C(=O)N[C@@H](Cc1ccccc1)C(=O)N[C@@H](C)C(=O)O [Hpr-SP, MSDLGAVISLLLWGRQLFA] (H-MSDLGAVISLLLWGRQLFA-OH; N-terminus and C-terminus assumed)",,,permeabilization of DSPC liposomes (calcein leakage) ([1]; neutral or acidic pH): no permeabilizing activity at neutral or acidic pH; permeabilization of egg PC liposomes (calcein leakage) ([1]; robust at pH 6.8): readily permeabilized by nanomolar concentrations; toxicity towards human embryonic kidney cells [2]: No toxicity was observed
AKLIALTLLGMGLALFRNHQS (amino acid sequence of small hydrophobic peptide -2 (SHP-2)) [Signal peptide of human paraoxonase-1 without the N-terminal methionine],equivalent to SHP-1,,
"ERTEESWGRRFWRRGEAC (non-specific, hydrophilic peptide predicted from the N-terminus of the alternatively edited protein-1 from mitochondria of T. b. brucei) [NSP, Non-specific hydrophilic peptide predicted from the N-terminus of alternatively edited protein-1 of T. b. brucei mitochondria, reference compound]",exhibited no toxicity,,killing (trypanolysis) of bloodstream form trypanosomes [4]: gave no trypanolysis
FHQIWAALLYFYGIIENSIY (derivative of SHP-3 having a leucine to glutamic acid substitution at position -5) [SHP-3ΔE],,does not,
FHQIWAALLYFYGIIRNSIY (derivative of SHP-3 having a leucine to arginine substitution at position -5) [SHP-3ΔR],,confers trypanocidal activity,"rigidity of the interfacial region of the plasma membrane (TMA-DPH) [6]: increased the rigidity of the interfacial region of the plasma membrane; motility phenotype (hyperactivation, constriction) (BSF T. b. brucei [7]): induce both initial hyperactivation and subsequent constriction"
SDLGAVISLLWGRQLFA (derivative of SHP-1 having a single leucine deletion) [SHP-1-ΔL],,,decrease in trypanocidal activity relative to SHP-1 [3]: five-fold
"SDLGAVISWGRQLFA (derivative of SHP-1 having a deletion of C-terminal leucine in triplicate) [SHP-1-ΔLLL, Derivative of SHP-1 with deletion of C-terminal leucine triplicate]",complete lose of trypanosome killing activity,,
"SDVISLLLWGRQLFA (derivative of SHP-1 having a deletion of the N-terminal leucine-glycine-alanine residues) [SHP-1-ΔLGA, Derivative of SHP-1 with a deletion of the N-terminal leucine-glycine-alanine residues]",complete lose of trypanosome killing activity,,
"SRLGAVISLLLWGDQLFA (derivative of SHP-1 having an aspartic acid to arginine substitution at position 2 and an arginine to aspartic acid subsitution at position -5) [SHP-1-swap, SHP-1 with aspartic acid at position 2 and arginine at position −5 swapped]",,loss of trypanocidal activity,
